Measured values taken from US20220264924A1, “METHODS AND COMPOSITIONS FOR IMPROVED TASTE QUALITY” (ALMENDRA PTE LTD, priority 2019, published 2022).
Several values for one entry are separate records, joined by “and”; a condition that tells them apart may be missing. Equal values may be shown once.

Tests used:
[1] = tested on: human subject (sensory testing); experiment: Sweetness Linger of standards in the sensory testing methodology; format: in vivo; conditions: perceived sweetness intensity @ 120 sec; standards in water: 10% Sucrose, 500 PPM REBA
Description: In various aspects, the present disclosure pertains to methods of testing the disclosed sweetener compositions, e.g., a sensory methodology or method for sweetener evaluation. In a particular aspect, the sensory methodology used is known as a “Flavor Profile Analysis” as has been previously described (see: B. T. Carr, S. D. Pecore, K. M. Gibes and G. E. DuBois, “Sensory Methods for Sweetener Evaluation”, Chapter 11 In Flavor Measurement, C. T. Ho and C. H. Manley, Eds., Marcel Dekker, New York, N.Y., 1993). The full set of sensory parameters that are assessed in the sensory testing method are: (a) Sweetness Intensity (which can be abbreviated in tables herein as “S”); (b) Sourness Intensity ((which can be abbreviated in tables herein as “So”); (c) Saltiness Intensity (which can be abbreviated in tables herein as “Sa”); (d) Bitterness Intensity (which can be abbreviated in tables herein as “B”); (e) Body/Mouthfeel Intensity (which can be abbreviated in tables herein as “B/MF”); (f) Astringency Intensity (which can be abbreviated in tables herein as “A”); (g) Sweetness Linger (which can be abbreviated in tables herein as “SL”); (h) Sweetness Appearance Time (which can be abbreviated in tables herein as “AT”); and (i) Sweetness Desensitization (which can be abbreviated in tables herein as “SD”). […]

[2] = tested on: human subject (sensory testing); conditions: R in Sucrose Equivalents of Sweetness; C in % (w/v); linear fit; cited from earlier work
[3] = tested on: human subject (sensory testing); conditions: cited from earlier work; for sweetness potency, times higher than sucrose: relative to sucrose (Tanaka 1987; Phillips 1989); for sweetness potency, times more potent than sucrose: sensory evaluations, relative to sucrose (Crammer and Ikan 1986)
[4] = tested on: human subject (sensory testing); experiment: Sensory test: taste modulator effect on mouthfeel with MSG, varied MgCl2/CaCl2 (Example 4); format: in vivo; conditions: 0-15 scale, 12 mM MSG Stock Solution
Protocol: (§1) Representative formulations within the scope of the disclosed formulations were prepared and subjected to sensory testing by the methods described above in the section entitled Testing Methodology, where formulations were rated on a 0-15 scales for the Taste Attributes: Umami Intensity (UI), Saltiness Intensity (SaI), Sourness Intensity (SoI), Bitterness Intensity (BI), Astringency Intensity (AI), and Mouthfeel Intensity (MF). In sensory test sessions, the number of samples evaluated was limited to four. In the initial phase of formulation screening, testing was carried out in triplicate with a single subject extensively experienced in the technique of flavor profile analysis.
(§2) The sensory protocol was as follows: • 1. Scramble ambient temperature samples so that each test solution is an unknown sample for sensory testing. • 2. Rinse mouth with 15 mL water while swishing vigorously followed by expectoration. • 3. Take 15 mL of the sample into the mouth and swish around vigorously for 15 sec scaling Umami Intensity (U), Sourness Intensity (So), Saltiness Intensity (Sa), Bitterness Intensity (B), Mouthfeel Intensity (MF) and Astringency Intensity (A) on 0-15 scales during this period and recording them in a table. • 4. Expectorate sample, rinse mouth vigorously with 15 mL water and expectorate at 15 sec. • 5. Note any change in sensory perceptions over the next 2 min and record observations in a table. • 6. Rinse mouth with 15 mL water with vigorous agitation in the mouth for 15 sec and expectorate. • 7. Wait a minimum of 15 min and repeat with next sample. • 8. Break sample code to identify samples.
(§3) This study assessed the effects of a disclosed taste modulation formulation on umami taste and other sensory perceptions as described above for the test method, i.e., Umami Intensity (UI), Sourness Intensity (SoI), Saltiness Intensity (SaI), Bitterness Intensity (BI), Mouthfeel Intensity (MF) and Astringency Intensity (AI).
The sensory protocol was as described above in Example 2.
Briefly, a MSG Stock Solution of 12 mM MSG ([…]) was prepared and 100 mL portions of it were added to four 250 mL plastic-capped glass bottles. Sample preparation was completed as follows:
Eight independent trials were carried out and the average results are summarized below in Table 3.

[5] = tested on: human subject (sensory testing); experiment: Sensory test: taste modulator effect on umami taste of MSG (Example 2); format: in vivo; conditions: 0-15 scale; average of three trials; MSG 12 mM
Protocol: as §1
as §3, with “effect” for “effects”
as §2
Briefly, a stock solution of 10 mM KCl (746 mg/L)/3 mM MgCl2.6H2O (610 mg/L)/3 mM CaCl2 (333 mg/L) in 1.00 L water was prepared in a 1 L E-flask, stirring to full dissolution. 100 mL portions of the mineral salt solution were then transferred to two 250 mL plastic-capped glass bottles and 100 mL portions of water were added to the other two 250 mL plastic-capped glass bottles. Sample completion was carried out by addition of MSG as follows for Sample Nos. 1-4.
Three independent trials were carried out and the data are summarized below in Table 1, with individual results from each trial and average of the three trials as indicated.

[6] = water (Kinghorn 2002); cited from earlier work

OC[C@H]1O[C@@](CO)(O[C@H]2O[C@H](CO)[C@@H](O)[C@H](O)[C@H]2O)[C@@H](O)[C@@H]1O [Sucrose]
SL (Sweetness Linger) [1]: 0 | C/R Function [2]: R = C

C[C@H](CC[C@@H](O[C@@H]1O[C@H](CO[C@@H]2O[C@H](CO)[C@@H](O)[C@H](O)[C@H]2O)[C@@H](O)[C@H](O)[C@H]1O[C@@H]1O[C@H](CO)[C@@H](O)[C@H](O)[C@H]1O)C(C)(C)O)[C@H]1CC[C@@]2(C)[C@@H]3CC=C4[C@@H](CC[C@H](O[C@@H]5O[C@H](CO[C@@H]6O[C@H](CO)[C@@H](O)[C@H](O)[C@H]6O)[C@@H](O)[C@H](O)[C@H]5O)C4(C)C)[C@]3(C)[C@H](O)C[C@]12C [mogroside V]
sweetness, times cane sugar ([3]; relative to cane sugar on a weight basis, estimated): approximately 250 times

Rebaudioside C
sweetness potency, times higher than sucrose [3]: 40-60 times

N[C@@H](CCC(=O)[O-])C(=O)O.O.[Na+] [MSG Control 1, MSG-H2O]
AI (Astringency Intensity) ([4]; average of eight trials): 0.0 | BI (Bitterness Intensity) ([4]; average of eight trials): 0.0 | MF (Mouthfeel Intensity) ([4]; average of eight trials): 1.5 | Sal (Saltiness Intensity) ([4]; average of eight trials): 2.0 | Sol (Sourness Intensity) ([4]; average of eight trials): 0.0 | UI (Umami Intensity) ([4]; average of eight trials): 5.0 | MF rating, Mean ([4]; mean of eight trials): 1.50 | MF rating, individual trials ([4]; trials 1-8): 1 (4×) and 2 (4×) | AI (Astringency Intensity) Ave [5]: 0.0 | BI (Bitterness Intensity) Ave [5]: 3.0 | MF (Mouthfeel Intensity) Ave [5]: 3.3 | Sal (Saltiness Intensity) Ave [5]: 2.0 | Sol (Sourness Intensity) Ave [5]: 0.0 | UI (Umami Intensity) Ave [5]: 4.7

N[C@@H](CCC(=O)[O-])C(=O)O.O.[Na+] [MSG Control 2, MSG-H2O]
AI (Astringency Intensity) Ave [5]: 0.0 | BI (Bitterness Intensity) Ave [5]: 3.0 | MF (Mouthfeel Intensity) Ave [5]: 3.0 | Sal (Saltiness Intensity) Ave [5]: 2.0 | Sol (Sourness Intensity) Ave [5]: 0.0 | UI (Umami Intensity) Ave [5]: 4.7

C=C1C[C@@]23CC[C@H]4[C@@](C)(CCC[C@@]4(C)C(=O)O[C@@H]4O[C@H](CO)[C@@H](O)[C@H](O)[C@H]4O)[C@@H]2CC[C@]1(O[C@@H]1O[C@H](CO)[C@@H](O)[C@H](O)[C@H]1O[C@@H]1O[C@@H](C)[C@H](O)[C@@H](O)[C@H]1O)C3 [Dulcoside A]
sweetness potency, times higher than sucrose [3]: 30 times

Rebaudioside B [REBB]
sweetness potency, times more potent than sucrose [3]: 300-350 times | water solubility [6]: about 0.1%

C=C1C[C@@]23CC[C@H]4[C@@](C)(CCC[C@@]4(C)C(=O)O[C@@H]4O[C@H](CO)[C@@H](O)[C@H](O)[C@H]4O)[C@@H]2CC[C@]1(O[C@@H]1O[C@H](CO)[C@@H](O)[C@H](O)[C@H]1O[C@@H]1O[C@H](CO)[C@@H](O)[C@H](O)[C@H]1O)C3 [Stevioside]
sweetness potency, times higher than sucrose [3]: 110-270 times

C=C1C[C@@]23CC[C@H]4[C@@](C)(CCC[C@@]4(C)C(=O)O[C@@H]4O[C@H](CO)[C@@H](O)[C@H](O)[C@H]4O)[C@@H]2CC[C@]1(O[C@@H]1O[C@H](CO)[C@@H](O)[C@H](O[C@@H]2O[C@H](CO)[C@@H](O)[C@H](O)[C@H]2O)[C@H]1O[C@@H]1O[C@H](CO)[C@@H](O)[C@H](O)[C@H]1O)C3 [Rebaudioside A]
SL (Sweetness Linger) [1]: 5 | sweetness potency, times more potent than sucrose [3]: 350-450 times
